Measured values: ChEMBL document CHEMBL5528003 (Eur J Med Chem, 2024)
pIC50: −log10 of the molar value.

Key:
[1] = molecular target: T1, Estrogen receptor (Homo sapiens, UniProt P03372); assay: Induction of Estrogen receptor degradation in wildtype human MCF7 cells assessed as reduction in estrogen receptor level incubated for 24 hrs by Western blot analysis; type: cell-based
T1 sequence (P03372 whole entry): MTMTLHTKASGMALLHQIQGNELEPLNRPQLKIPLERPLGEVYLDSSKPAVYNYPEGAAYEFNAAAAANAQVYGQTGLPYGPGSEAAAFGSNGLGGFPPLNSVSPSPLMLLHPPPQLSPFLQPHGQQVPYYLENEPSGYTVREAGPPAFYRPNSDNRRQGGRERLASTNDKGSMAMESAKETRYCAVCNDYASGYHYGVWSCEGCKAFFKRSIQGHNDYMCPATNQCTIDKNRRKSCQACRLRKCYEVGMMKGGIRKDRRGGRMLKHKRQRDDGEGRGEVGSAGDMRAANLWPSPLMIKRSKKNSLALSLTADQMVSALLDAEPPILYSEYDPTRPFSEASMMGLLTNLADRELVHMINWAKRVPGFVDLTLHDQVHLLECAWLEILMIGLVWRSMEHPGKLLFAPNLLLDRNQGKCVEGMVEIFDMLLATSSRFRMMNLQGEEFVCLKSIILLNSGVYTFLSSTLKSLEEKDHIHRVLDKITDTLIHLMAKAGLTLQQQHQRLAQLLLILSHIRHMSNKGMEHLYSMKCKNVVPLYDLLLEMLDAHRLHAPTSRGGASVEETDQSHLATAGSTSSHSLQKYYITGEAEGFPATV

[2] = Metabolic stability in human liver microsomes assessed as parent compound remaining incubated for 60 mins in presence of NADPH by LC-MS/MS analysis; type: ADME, Microsome; settings: read-out: Stability
[3] = Metabolic stability in rat liver microsomes assessed as parent compound remaining incubated for 60 mins in presence of NADPH by LC-MS/MS analysis; type: ADME, Microsome; settings: read-out: Stability
[4] = test system: MCF7; assay: Antiproliferative activity against wildtype human MCF7 cells assessed as inhibition of cell proliferation incubated for 6 days in presence of beta-estradiol by CellTiter-Glo assay; type: functional, cell-based; settings: MCF7, 144 h

`C[C@@H]1Cc2c([nH]c3ccccc23)[C@@H](c2c(F)cc(NC3CN(CCC[S+]([O-])CCCC(F)(F)C(F)(F)F)C3)cc2F)N1CC(F)(F)CO` (some centres not stated) gave a DC50 [1] of 1.2 nM, a remaining at 1 h [2] of 60.1% and a remaining at 1 h [3] of 79.3%. The pIC50 [4] was 9.05.

Compound `C[C@@H]1Cc2c([nH]c3ccccc23)[C@@H](c2c(F)cc(NC3CN(CCCS(=O)(=O)CCCC(F)(F)C(F)(F)F)C3)cc2F)N1CC(F)(F)F` has a DC50 [1] of 10.6 nM, a remaining at 1 h [2] of 71.2% and a remaining at 1 h [3] of 99.1%. For the same compound, the pIC50 [4] was 8.01.

`C[C@@H]1Cc2c([nH]c3ccccc23)[C@@H](c2c(F)cc(NC3CN(CC[S+]([O-])CCCC(F)(F)C(F)(F)F)C3)cc2F)N1CC(F)(F)F` (some centres not stated) gave a remaining at 1 h [2] of 43% and a remaining at 1 h [3] of 71.6%.

`C[C@@H]1Cc2c([nH]c3ccccc23)[C@@H](c2c(F)cc(NC3CN(CC[S+]([O-])CCCC(F)(F)C(F)(F)F)C3)cc2F)N1CC(F)(F)CO` (some centres not stated) showed a remaining at 1 h [2] of 29.1% and a remaining at 1 h [3] of 78%.
